Holding throughout (assay type): cell-based
Test [1] concerns the target T1, GSPT1 (Homo sapiens, UniProt P15170+Q96SW2). The test is described as follows: GSPT1 protein reduction, western analysis, Kasumi-1. Details: reduction in GSPT1 protein level was evaluated in human normal PBMCs; endogenous in cells; host or cells: primary PBMCs from normal donors (ID 4328, 4379) and AML patients (ID 11SH, 09P6). As to the method: The time course of the reduction in GSPT1 by Compound D also was studied for up to 48 hours. The progressive degradation of GSPT1 over the course of 1 to 20 hours was evident in the presence of all concentrations of Compound D studied from 3 to 300 nM in HNT-34, HL-60, and ML-2 cells, with little GSPT1 remaining by 20 hours at 100 or 300 nM Compound D in HNT-34 or HL-60 cells (FIG. 34 and FIG. 35C). Time-dependent reduction in GSPT1 was also observed in KG-1 and OCI-AML2 cells at 3 to 1000 nM Compound D, with little GSPT1 remaining in KG-1 cells at 100 to 300 nM at 24 hours or in OCI-AML2 cells at 300 and 1000 nM at 24 hours (FIG. 35D). Loss of GSPT1 occurred more slowly in Kasumi-1, AML-193, and […] cells. […] A positive association (r^2=0.50; […]

The test system of test [2] is HNT-34 cells. The test is described as follows: Anti-proliferation 72-hour CTG assay, HNT-34. To be noted: Homo sapiens. As to the method:
A plethora of AML cell lines were treated with serial dilutions of Compound D. IC50 value of the anti-proliferation effect of Compound D (as determined in 72-hour CTG assays) in each cell line is summarized in Table 1.

In test [3] the target is T1, GSPT1. The test is described as follows: GSPT1 protein reduction, western analysis, OCI-AML3. Details: reduction in GSPT1 protein level was evaluated in human normal PBMCs; endogenous in cells; host or cells: primary PBMCs from normal donors (ID 4328, 4379) and AML patients (ID 11SH, 09P6). As to the method:
The reduction in the level of GSPT1 protein was concentration-dependent over the range of 3 to 1000 nM in eight of the nine AML cell lines and over the range of 300 to 1000 nM in one relatively insensitive AML cell line. The time course of the reduction in GSPT1 by Compound D also was studied for up to 48 hours. The progressive degradation of GSPT1 over the course of 1 to 20 hours was evident in the presence of all concentrations of Compound D studied from 3 to 300 nM in HNT-34, HL-60, and ML-2 cells, with little GSPT1 remaining by 20 hours at 100 or 300 nM Compound D in HNT-34 or HL-60 cells (FIG. 34 and FIG. 35C). Time-dependent reduction in GSPT1 was also observed in KG-1 and OCI-AML2 cells at 3 to 1000 nM Compound D, with little GSPT1 remaining in KG-1 cells at 100 to 300 nM at 24 hours or in OCI-AML2 cells at 300 and 1000 nM at 24 hours (FIG. 35D). Loss of GSPT1 occurred more slowly in Kasumi-1, AML-193, and F36-P cells.
Compound D-mediated GSPT1 reduction at 8 hours was compared to induction of caspase 3/7 activation (apoptosis) at 12, 24, and 48 hour time points in these nine AML cell lines. […] A positive association (r^2=0.50; R=0.71; p value=4.86E-002) was observed between the level of GSPT1 reduction and apoptosis induction in the AML cell panel (FIG. 36), with >90% GSPT1 reduction correlating with induction of apoptosis.

Results on 1 molecule are retold here after US12474342B2, “Methods for treating cancer and the use of biomarkers as a predictor of clinical sensitivity to therapies” (CELGENE CORPORATION, priority 2016, dated 2025).

In general, IC50 refers to the concentration that gives 50% inhibition.

Where two headings read alike, the source gives them in different places. Marks after values point to notes of the source that are not given here.

T1 sequence (P15170 1-637 isoform P15170-3): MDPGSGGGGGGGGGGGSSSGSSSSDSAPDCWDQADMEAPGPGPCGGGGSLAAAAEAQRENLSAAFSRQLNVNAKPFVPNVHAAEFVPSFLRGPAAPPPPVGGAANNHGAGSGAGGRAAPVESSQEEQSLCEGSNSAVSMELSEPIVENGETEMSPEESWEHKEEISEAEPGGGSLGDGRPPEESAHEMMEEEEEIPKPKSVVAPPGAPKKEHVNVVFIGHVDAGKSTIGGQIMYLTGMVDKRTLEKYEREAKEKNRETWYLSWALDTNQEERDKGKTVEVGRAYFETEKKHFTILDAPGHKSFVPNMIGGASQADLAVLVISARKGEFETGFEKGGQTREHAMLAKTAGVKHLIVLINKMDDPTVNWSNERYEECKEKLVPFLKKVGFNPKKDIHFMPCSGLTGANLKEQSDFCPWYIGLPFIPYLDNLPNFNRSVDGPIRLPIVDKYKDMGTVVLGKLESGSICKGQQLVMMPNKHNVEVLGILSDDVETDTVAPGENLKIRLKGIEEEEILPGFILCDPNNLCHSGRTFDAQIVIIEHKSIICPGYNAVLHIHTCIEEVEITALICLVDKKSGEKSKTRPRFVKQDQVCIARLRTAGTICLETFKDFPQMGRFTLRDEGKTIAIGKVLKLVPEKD
T1 sequence (Q96SW2 whole entry): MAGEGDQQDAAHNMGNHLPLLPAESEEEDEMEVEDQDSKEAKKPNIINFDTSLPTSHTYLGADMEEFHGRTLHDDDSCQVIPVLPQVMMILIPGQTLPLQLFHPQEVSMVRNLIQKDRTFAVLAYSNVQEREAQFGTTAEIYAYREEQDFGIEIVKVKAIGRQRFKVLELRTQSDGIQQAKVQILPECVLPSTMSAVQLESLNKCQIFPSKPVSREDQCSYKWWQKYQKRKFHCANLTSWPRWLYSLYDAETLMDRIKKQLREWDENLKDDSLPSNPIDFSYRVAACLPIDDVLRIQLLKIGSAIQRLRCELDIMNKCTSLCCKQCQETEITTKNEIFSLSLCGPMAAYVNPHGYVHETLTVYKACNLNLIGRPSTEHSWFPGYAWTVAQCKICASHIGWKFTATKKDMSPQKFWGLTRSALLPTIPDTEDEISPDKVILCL
T1 sequence (Q16531 whole entry partner): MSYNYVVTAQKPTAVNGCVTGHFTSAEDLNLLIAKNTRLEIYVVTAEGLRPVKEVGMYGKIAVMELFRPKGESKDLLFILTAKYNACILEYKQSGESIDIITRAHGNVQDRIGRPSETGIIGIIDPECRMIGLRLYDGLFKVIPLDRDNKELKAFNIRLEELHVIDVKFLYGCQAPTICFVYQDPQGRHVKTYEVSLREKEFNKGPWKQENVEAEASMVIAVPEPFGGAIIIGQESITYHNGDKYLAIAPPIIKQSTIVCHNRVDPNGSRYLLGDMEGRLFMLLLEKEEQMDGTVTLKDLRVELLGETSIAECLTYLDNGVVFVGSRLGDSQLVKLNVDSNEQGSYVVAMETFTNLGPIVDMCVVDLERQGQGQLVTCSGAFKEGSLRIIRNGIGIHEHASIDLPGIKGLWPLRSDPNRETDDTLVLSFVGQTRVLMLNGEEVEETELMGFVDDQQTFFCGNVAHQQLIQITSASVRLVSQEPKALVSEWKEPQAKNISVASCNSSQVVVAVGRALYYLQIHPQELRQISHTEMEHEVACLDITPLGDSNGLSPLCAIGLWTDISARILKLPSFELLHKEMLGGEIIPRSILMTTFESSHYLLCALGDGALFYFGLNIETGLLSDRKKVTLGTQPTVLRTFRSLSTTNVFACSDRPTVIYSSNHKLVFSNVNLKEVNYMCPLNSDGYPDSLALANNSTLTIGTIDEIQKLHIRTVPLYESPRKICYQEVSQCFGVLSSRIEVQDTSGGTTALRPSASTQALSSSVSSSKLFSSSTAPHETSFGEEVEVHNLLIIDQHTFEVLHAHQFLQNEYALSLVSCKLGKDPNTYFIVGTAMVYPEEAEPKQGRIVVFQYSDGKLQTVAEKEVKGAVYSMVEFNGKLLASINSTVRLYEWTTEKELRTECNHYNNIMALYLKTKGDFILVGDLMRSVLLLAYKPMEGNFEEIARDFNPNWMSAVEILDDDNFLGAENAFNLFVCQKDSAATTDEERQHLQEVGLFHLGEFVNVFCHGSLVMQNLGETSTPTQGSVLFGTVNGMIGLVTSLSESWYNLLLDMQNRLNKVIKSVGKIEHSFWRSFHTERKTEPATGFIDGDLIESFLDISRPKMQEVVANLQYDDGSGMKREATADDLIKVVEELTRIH

`O=C1CCC(N2Cc3cc(CNC(=O)C(F)(F)c4ccc(Cl)cc4)ccc3C2=O)C(=O)N1` (centres unmarked) [Compound D, 2-(4-chlorophenyl)-N-((2-(2,6-dioxopiperidin-3-yl)-1-oxoisoindolin-5-yl)methyl)-2,2-difluoroacetamide]: the “Percent Reduction at 100 nM Compound D GSPTI (8 hr)” value is on record as 64% in test [1] (Kasumi-1, 100 nM, 8 hr); ~30^b % in test [3] (OCI-AML3, 100 nM, 8 hr, visual interpolation between 3 and 300 nM). The GSPT1 reduction in test [1] (Kasumi-1, 300 nM Compound D, 8 hours) is reported as 51%; in test [3] (OCI-AML3, 300 nM Compound D, 8 hours) it was 37%. In addition, the 50% inhibitory concentration (IC50) in test [2] (HNT-34, read-out: anti-proliferative activity IC50) came out at 3 nM; in test [2] (HNT-34, 72-hour CTG assay, read-out: IC50 of the anti-proliferative effect), 3 nM. For the same molecule, in test [3] (OCI-AML3, 4-hour exposure), the GSPT1 protein level entry is “barely changed”. The “loss of GSPT1” value in test [3] (OCI-AML3, 300 and 1000 nM, 24 and 48 hours) was “slight loss”.
